Experimental data: US20240124483A1, “Methods for the Treatment of Fibrotic Disease” (SHY Therapeutics, LLC, priority 2021, published 2024)
Where two headings read alike, the source gives them in different places.

Experiments:
JNK = JNK Activation Assay in Panc-1 (western blot); assay type: cell-based, Human; parameters: key: Y = yes; N = No; settings: at 10 μM
Method: (§1) Cell lines: Human tumor-derived pancreatic cancer cell line Panc-1 and mouse muscle myoblast C2C12 were purchased from American Type Culture Collection and grown in complete DMEM-High Glucose, supplemented with penicillin (100 U/mL), streptomycin (100 μg/mL), and 10% heat-inactivated FBS at 37° C. in a humidified incubator with 5% CO2.
(§2) Method: Cells were plated at 350000 cells/well density in a 12-well plate, allowed 3 hours to adhere to the plate, then starved in the appropriate medium in the presence of 0.5% FBS overnight. The small molecules to be tested were added to the cells in the final concentration of 10 μM in the presence of 0.3% DMSO for 3 hours incubation at 37° C. For IC50 value determination, serial dilutions of compounds were added to cells under the same conditions. Next, Panc-1 cells were stimulated with 10 ng/ml TGF-b1 for 1 hour, and C2C12 cells were stimulated with 10 ng/ml TGF-b1 for 20 minutes (recombinant human TGF-b1, R&D Systems). After stimulation cells were lysed with lysis buffer containing 1% Triton X-100, EDTA, and Halt™ Protease & Phosphatase Inhibitor Cocktail (Thermo Scientific). Protein concentration was assessed by BCA protein assay (Thermo Scientific). Phosphorylation level of JNK was determined by western blot.
(§3) Western blot protocol: Equal amounts of protein (15-50 μg) were separated by SDS-PAGE and transferred to nitrocellulose membranes (Invitrogen by Thermo Fisher Scientific). The membrane was stained with Ponceau S Stain (Boston BioProducts) to verify uniform protein loading. Membranes were blocked with 10% milk and phosphorylation levels of Smad2, Smad3, INK and p38 were assessed by incubating overnight at 4° C. with the following antibody: Phospho-SAPK/JNK (Thr183/Tyr185), from Cell Signaling Technology. Then the membranes were incubated with HRP-conjugated secondary antibody (Jackson Immunoresearch, West Grove, PA). Bands were incubated in Amersham ECL Prime Western Blotting Detection Reagent (GE Healthcare) and visualized using the ChemiDoc MP imaging system (Bio-Rad).

MAPK p38 = MAPK p38 Activation Assay in Panc-1 (western blot); assay type: cell-based, Human; parameters: key: Y = yes; N = No; settings: at 10 μM
Method: as §1
as §2, with “MAPK p38” for “JNK”
as §3, with “Smad2/Smad3” for “Smad2, Smad3, INK and p38”, “Phospho-p38 MAPK (Thr180/Tyr182),” for “Phospho-SAPK/JNK (Thr183/Tyr185),”

KRas wild type = KRas wild type (Homo sapiens (Human), UniProt P01116); experiment: Ras GTP Binding Domain Inhibition Assay, KRas wild type
KRas wild type, sequence (P01116 other isoform, or with tags, fused parts or gaps): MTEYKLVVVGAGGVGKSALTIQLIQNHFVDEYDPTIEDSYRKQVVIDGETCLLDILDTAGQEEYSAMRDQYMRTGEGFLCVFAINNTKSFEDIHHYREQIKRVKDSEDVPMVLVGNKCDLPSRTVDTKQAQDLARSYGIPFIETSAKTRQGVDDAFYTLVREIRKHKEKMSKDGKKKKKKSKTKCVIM
Method: (§4) A Ras Superfamily Activity Assay (as disclosed in International Application No. PCT/US2018/038613, filed Jun. 20, 2018, which is incorporated by reference in its entirety) was used as a specific assay to evaluate compounds against the following for the following Ras Superfamily proteins: KRas wild type, KRas Q61H mutant, KRas G12C mutant, KRas G12D mutant, Rac-1, and Rho-A.
(§5) Buffer-I: • 25 mM Tris-HCl, pH 7.4 • 27 mM KCl • 137 mM NaCl • 1 mM MgCl2 • 1 mM DTT
(§6) Buffer-II: • 50 mM Tris-HCl, pH 7.0 • 1 mM MgCl2 • 1 mM DTT
(§7) The small GTPases proteins: KRas wild type. KRas Q61H mutant, KRas G12C mutant, KRas G12D mutants, Rac-1, and Rho-A were expressed as His-tagged proteins. In addition, the Guanosine nucleotide Exchange Factor (GEF) Sos protein (residues 556-1049) was expressed as a His-tagged protein. In cells, the guanine nucleotide exchange factor Sos protein promotes activation of Ras proteins by stimulating an exchange of GDP for GTP. The inclusion of Sos to the Ras GTP binding domain inhibition assay may be considered as an alternative representation of physiological cellular conditions for evaluating the inhibitory activity of some of the tested small molecules.
(§8) For the assay, all purified small GTPases proteins were diluted in Buffer-I or Buffer-II to a final concentration of 10-30 μg/mL. 200 μL of each diluted protein was added to a nickel-coated 96-well plate and incubated overnight at 4° C. Then the protein solution was discarded and 200 μL of Buffer-I or Buffer-II was added to each well in the presence of 1% DMSO. Compounds to be tested were added to the protein-coated wells at final concentration of 20 μM, and incubated for 3 hours at room temperature with and without 10-30 μg/mL of Sos added to the final hour of the incubation. When performing IC50 measurements a serial dilution of all tested concentrations was added. Then Cy3-GTP or Cy5-GTP was added to each well to a final concentration of 100 nM. The labeled GTP was incubated for 45 minutes at room temperature. Following GTP incubation, wells were washed 3× in Buffer-I or Buffer-II and 200 μL of Buffer-I or Buffer-II was added to each well. Following washes, the amount of bound labeled-GTP was measured using a SpectraMax M3 (Molecular Devices).

Rac-1 = Rac-1 (Homo sapiens (Human), UniProt P63000); experiment: Ras GTP Binding Domain Inhibition Assay, Rac-1
Method: as §4, §5, §6, §7, §8

Rho-A = Rho-A (Homo sapiens (Human), UniProt P61586); experiment: Ras GTP Binding Domain Inhibition Assay, Rho-A
Rho-A, sequence (P61586 whole entry, species assumed, the tested form may be a part): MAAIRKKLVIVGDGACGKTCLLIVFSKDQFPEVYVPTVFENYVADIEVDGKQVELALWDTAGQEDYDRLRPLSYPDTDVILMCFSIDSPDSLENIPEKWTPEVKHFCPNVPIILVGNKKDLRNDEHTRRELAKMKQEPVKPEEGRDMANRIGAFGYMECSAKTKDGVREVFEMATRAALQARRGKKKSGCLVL
Method: as §4, §5, §6, §7, §8

[1] = + SOS, read-out: KRas wild type + SOS: % inh.
[2] = without SOS, read-out: KRas wild type: % inh.
[3] = + SOS, read-out: Rac-1 + SOS: % inh.
[4] = without SOS, read-out: Rac-1: % inh.
[5] = + SOS, read-out: Rho-A + SOS: % inh.
[6] = without SOS, read-out: Rho-A: % inh.

| Structure (SMILES) | Activation of JNK in PANC-1 (JNK) | Activation of MAPK p38 in PANC-1 (MAPK p38) | inhibition at 20 µM (KRas wild type; [1]) [%] | inhibition at 20 µM (KRas wild type; [2]) [%] | inhibition at 20 µM (Rac-1; [3]) [%] | inhibition at 20 µM (Rac-1; [4]) [%] | inhibition at 20 µM (Rho-A; [5]) [%] | inhibition at 20 µM (Rho-A; [6]) [%] |
| --- | --- | --- | --- | --- | --- | --- | --- | --- |
| CO[C@H]1CC[C@@H](Nc2nc(-c3nccn3C)nc3sc(-c4ccn(C)n4)c(-c4ccccc4)c23)C1 (racemic) [Compound 5, rac-N-((1R,3S)-3-Methoxycyclopentyl)-2-(1-methyl-1H-imidazol-2-yl)-6-(1-methyl-1H-pyrazol-3-yl)-5-phenylthieno[2,3-d]pyrimidin-4-amine] | Y | Y | 76 to 100 | 26 to 45 | 46 to 75 | 46 to 75 | 76 to 100 | 46 to 75 |
| COc1cccc(-c2sc3nc(-c4nccn4C)nc(NC4CCC(OC)C4)c3c2C)c1F (racemic) [Compound 10, rac-6-(2-Fluoro-3-methoxyphenyl)-N-((1R,3S)-3-methoxycyclopentyl)-5-methyl-2-(1-methyl-1H-imidazol-2-yl)thieno[2,3-d]pyrimidin-4-amine and rac-6-(2-Fluoro-3-methoxyphenyl)-N-((1R,3R)-3-methoxycyclopentyl)-5-methyl-2-(1-methyl-1H-imidazol-2-yl)thieno[2,3-d]pyrimidin-4-amine] | Y | Y | 46 to 75 | 46 to 75 | 46 to 75 | 46 to 75 | 76 to 100 | 76 to 100 |
| CO[C@H]1CC[C@@H](Nc2nc(-c3nccn3C)nc3sc(-c4ccn(C(C)C)n4)c(C)c23)C1 (racemic) [Compound 12, rac-6-(1-Isopropyl-1H-pyrazol-3-yl)-N-((1R,3S)-3-methoxycyclopentyl)-5-methyl-2-(1-methyl-1H-imidazol-2-yl)thieno[2,3-d]pyrimidin-4-amine] | Y | Y | 76 to 100 | 76 to 100 | 46 to 75 | 46 to 75 | 76 to 100 | 76 to 100 |
| COC1CCCN(c2nc(-c3nccn3C)nc3sc(-c4ccn(C(C)C)n4)c(C)c23)C1 (racemic) [Compound 14, rac-6-(1-Isopropyl-1H-pyrazol-3-yl)-4-(3-methoxypiperidin-1-yl)-5-methyl-2-(1-methyl-1H-imidazol-2-yl)thieno[2,3-d]pyrimidine] | Y | Y | 76 to 100 | 0 |  | 46 to 75 |  | 26 to 45 |
| COCC1CN(c2nc(-c3nccn3C)nc3sc(-c4ccn(C(C)C)n4)c(C)c23)CCO1 (racemic) [Compound 15, 4-(6-(1-Isopropyl-1H-pyrazol-3-yl)-5-methyl-2-(1-methyl-1H-imidazol-2-yl)thieno[2,3-d]pyrimidin-4-yl)-2-(methoxymethyl)morpholine] | Y | Y | 76 to 100 | 76 to 100 |  | 76 to 100 |  | 76 to 100 |
| COCCO[C@H]1CC[C@@H](Nc2nc(-c3nccn3C)nc3sc(-c4ccn(C(C)C)n4)c(C)c23)C1 (racemic) [Compound 20, rac-6-(1-Isopropyl-1H-pyrazol-3-yl)-N-((1R,3S)-3-(2-methoxyethoxy)cyclopentyl)-5-methyl-2-(1-methyl-1H-imidazol-2-yl)thieno[2,3-d]pyrimidin-4-amine] | Y | Y | 76 to 100 | 76 to 100 |  | 46 to 75 |  | 46 to 75 |
| Cc1c(-c2ccn(C(C)C)n2)sc2nc(-c3nccn3C)nc(NCC3COCCN3C)c12 (racemic) [Compound 24, rac-6-(1-Isopropyl-1H-pyrazol-3-yl)-5-methyl-2-(1-methyl-1H-imidazol-2-yl)-N-((4-methylmorpholin-3-yl)methyl)thieno[2,3-d]pyrimidin-4-amine] | Y | Y | 76 to 100 | 26 to 45 |  | 76 to 100 |  | 46 to 75 |
| Cc1c(-c2ccn(C(C)C)n2)sc2nc(-c3nccn3C)nc(NCC3CN(C)CCO3)c12 (racemic) [Compound 25, rac-6-(1-Isopropyl-1H-pyrazol-3-yl)-5-methyl-2-(1-methyl-1H-imidazol-2-yl)-N-((4-methylmorpholin-2-yl)methyl)thieno[2,3-d]pyrimidin-4-amine] | Y | Y | 76 to 100 | 76 to 100 |  | 76 to 100 |  | 76 to 100 |
| Cc1c(-c2ccn(C(C)C)n2)sc2nc(-c3nccn3C)nc(NCC3CCCO3)c12 (racemic) [Compound 26, rac-6-(1-Isopropyl-1H-pyrazol-3-yl)-5-methyl-2-(1-methyl-1H-imidazol-2-yl)-N-((tetrahydrofuran-2-yl)methyl)thieno[2,3-d]pyrimidin-4-amine] | Y | Y | 76 to 100 | 76 to 100 |  | 46 to 75 |  | 76 to 100 |
